Assays:
[1] = target: T1, Adrenergic receptor alpha-1 (Rattus norvegicus) (UniProt P15823+P23944+P43140); assay: Displacement of [3H]prazosin from Adrenergic alpha-1 receptor in rat cerebral cortex cells at 1 uM; format: cell-based
[2] = target: T2, Alpha-2A adrenergic receptor (Rattus norvegicus) (UniProt P22909); assay: Displacement of [3H]RX 821002 from Adrenergic alpha-2a receptor in rat cerebral cortex cells at 1 uM; format: cell-based
T2 sequence (whole entry): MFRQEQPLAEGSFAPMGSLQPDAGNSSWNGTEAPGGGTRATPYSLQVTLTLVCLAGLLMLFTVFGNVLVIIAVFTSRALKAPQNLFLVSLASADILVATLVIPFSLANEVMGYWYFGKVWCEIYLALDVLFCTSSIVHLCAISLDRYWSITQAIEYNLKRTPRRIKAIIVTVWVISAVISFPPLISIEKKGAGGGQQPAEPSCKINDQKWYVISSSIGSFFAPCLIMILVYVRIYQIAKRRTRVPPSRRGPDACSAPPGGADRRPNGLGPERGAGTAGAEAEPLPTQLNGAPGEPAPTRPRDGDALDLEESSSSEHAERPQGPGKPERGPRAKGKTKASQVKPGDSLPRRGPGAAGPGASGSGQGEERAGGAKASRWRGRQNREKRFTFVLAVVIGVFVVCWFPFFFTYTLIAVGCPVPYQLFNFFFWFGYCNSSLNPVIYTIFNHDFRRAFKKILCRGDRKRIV

[3] = target: T3, 5-hydroxytryptamine receptor 1A (Homo sapiens) (UniProt P08908); assay: Activity against 5HT1A receptor relative to 5-HT by Gi-[35S]GTP-gamma-S binding assay; format: functional
T3 sequence (whole entry): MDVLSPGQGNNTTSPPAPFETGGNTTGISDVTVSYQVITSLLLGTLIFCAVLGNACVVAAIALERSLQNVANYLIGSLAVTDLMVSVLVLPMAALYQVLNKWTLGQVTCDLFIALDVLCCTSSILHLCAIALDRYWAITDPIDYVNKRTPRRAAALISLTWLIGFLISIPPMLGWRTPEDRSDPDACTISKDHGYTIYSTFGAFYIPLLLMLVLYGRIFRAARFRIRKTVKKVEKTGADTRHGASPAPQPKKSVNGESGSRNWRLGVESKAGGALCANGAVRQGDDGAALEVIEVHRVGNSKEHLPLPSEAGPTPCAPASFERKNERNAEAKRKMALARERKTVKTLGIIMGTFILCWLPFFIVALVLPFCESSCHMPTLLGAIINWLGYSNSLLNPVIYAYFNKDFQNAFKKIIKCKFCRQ

[4] = Toxicity in po dosed Sprague-Dawley rat; format: organism-based; settings: in vivo
[5] = Elimination half life in human; format: ADME, organism-based; settings: in vivo
[6] = Half life in Sprague-Dawley rat at 3 mg/kg, po; format: ADME, organism-based; design: dose 3 mg/kg, route oral; settings: in vivo
[7] = Cmax in Sprague-Dawley rat at 3 mg/kg, po; format: ADME, organism-based; design: dose 3 mg/kg, route oral; settings: in vivo
[8] = Half life in Beagle dog at 3 mg/kg, po; format: ADME, organism-based, Canis lupus familiaris; design: dose 3 mg/kg, route oral; settings: in vivo
[9] = Toxicity in po dosed Beagle dog; format: organism-based, Canis lupus familiaris; settings: in vivo
[10] = Cmax in Beagle dog at 3 mg/kg, po; format: ADME, organism-based, Canis lupus familiaris; design: dose 3 mg/kg, route oral; settings: in vivo
[11] = target: T4, 5-hydroxytryptamine receptor 1A (Homo sapiens, UniProt P08908); assay: Displacement of [3H]8-OH-DPAT from human 5HT1A receptor in HEK293 cells
T4 sequence (P08908 whole entry): T3 sequence (whole entry)

D(2) dopamine receptor = D(2) dopamine receptor (Homo sapiens, UniProt P14416); assay: Binding affinity to D2 receptor by radioligand binding assay
D(2) dopamine receptor, sequence (P14416 whole entry): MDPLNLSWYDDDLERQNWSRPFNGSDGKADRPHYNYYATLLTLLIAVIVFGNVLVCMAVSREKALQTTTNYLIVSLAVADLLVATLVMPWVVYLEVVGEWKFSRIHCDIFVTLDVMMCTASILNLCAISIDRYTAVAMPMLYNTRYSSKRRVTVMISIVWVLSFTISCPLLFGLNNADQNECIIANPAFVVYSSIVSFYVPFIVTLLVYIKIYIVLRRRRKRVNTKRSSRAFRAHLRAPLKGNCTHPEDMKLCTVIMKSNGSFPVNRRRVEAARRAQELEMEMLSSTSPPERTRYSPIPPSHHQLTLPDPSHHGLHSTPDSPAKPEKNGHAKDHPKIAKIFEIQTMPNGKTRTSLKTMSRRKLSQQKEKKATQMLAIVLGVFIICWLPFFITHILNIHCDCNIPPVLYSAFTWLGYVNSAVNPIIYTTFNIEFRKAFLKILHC

[12] = target: T5, Adrenergic receptor alpha-1 (Rattus norvegicus, UniProt P15823+P23944+P43140); assay: Displacement of [3H]prazosin from adrenergic alpha-1 receptor in rat cerebral cortex cells; format: cell-based
T5 sequence (P15823 whole entry): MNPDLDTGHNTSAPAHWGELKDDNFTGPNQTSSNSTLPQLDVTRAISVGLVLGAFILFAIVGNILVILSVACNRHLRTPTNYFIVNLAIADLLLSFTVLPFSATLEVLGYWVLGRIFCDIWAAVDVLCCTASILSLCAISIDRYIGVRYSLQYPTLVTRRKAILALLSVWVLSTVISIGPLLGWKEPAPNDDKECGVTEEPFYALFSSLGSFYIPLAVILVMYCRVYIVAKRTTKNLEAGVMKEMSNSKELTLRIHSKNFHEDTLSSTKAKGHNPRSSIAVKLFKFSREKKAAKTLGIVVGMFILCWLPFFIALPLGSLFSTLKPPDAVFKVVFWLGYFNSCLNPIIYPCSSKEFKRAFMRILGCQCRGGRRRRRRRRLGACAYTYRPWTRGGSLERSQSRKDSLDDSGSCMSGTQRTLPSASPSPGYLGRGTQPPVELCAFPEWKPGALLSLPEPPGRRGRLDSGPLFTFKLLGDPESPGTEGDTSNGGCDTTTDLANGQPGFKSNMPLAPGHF
T5 sequence (P23944 whole entry): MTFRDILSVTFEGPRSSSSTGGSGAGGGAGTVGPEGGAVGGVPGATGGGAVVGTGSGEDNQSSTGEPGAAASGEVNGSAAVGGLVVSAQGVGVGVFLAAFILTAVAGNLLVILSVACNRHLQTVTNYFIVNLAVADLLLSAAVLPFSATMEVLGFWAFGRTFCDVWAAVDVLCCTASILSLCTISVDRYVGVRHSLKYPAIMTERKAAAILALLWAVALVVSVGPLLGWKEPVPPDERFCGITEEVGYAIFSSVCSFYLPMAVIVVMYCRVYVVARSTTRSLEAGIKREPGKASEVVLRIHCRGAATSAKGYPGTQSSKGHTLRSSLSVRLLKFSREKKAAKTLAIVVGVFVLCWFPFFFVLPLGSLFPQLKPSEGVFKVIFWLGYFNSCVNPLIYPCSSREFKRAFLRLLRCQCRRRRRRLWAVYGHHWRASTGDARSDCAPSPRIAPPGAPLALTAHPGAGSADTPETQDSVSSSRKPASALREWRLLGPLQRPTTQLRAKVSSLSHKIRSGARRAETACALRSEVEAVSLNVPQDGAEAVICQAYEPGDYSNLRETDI
T5 sequence (P43140 whole entry): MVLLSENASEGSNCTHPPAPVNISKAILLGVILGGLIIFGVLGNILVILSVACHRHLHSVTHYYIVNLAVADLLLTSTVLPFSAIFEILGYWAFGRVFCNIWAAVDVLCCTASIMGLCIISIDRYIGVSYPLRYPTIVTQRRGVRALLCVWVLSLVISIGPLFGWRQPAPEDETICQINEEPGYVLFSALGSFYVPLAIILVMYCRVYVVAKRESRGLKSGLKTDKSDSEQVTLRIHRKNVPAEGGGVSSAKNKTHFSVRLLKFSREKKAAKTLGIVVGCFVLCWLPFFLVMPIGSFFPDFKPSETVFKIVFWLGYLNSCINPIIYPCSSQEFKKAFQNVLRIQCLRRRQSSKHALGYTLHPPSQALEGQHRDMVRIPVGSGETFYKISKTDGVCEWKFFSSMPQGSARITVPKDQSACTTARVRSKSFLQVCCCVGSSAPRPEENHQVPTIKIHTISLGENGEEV

[13] = Selectivity for adrenergic alpha-1 receptor over 5HT1A receptor
[14] = Oral bioavailability in Sprague-Dawley rat at 3 mg/kg, po and 1 mg/kg, iv; format: ADME, organism-based; settings: in vivo
[15] = Half life in human liver microsome at 5 uM; format: ADME; settings: liver microsomes
[16] = Half life in human liver S9 fraction at 5 uM; format: ADME
[17] = target: T1, Adrenergic receptor alpha-1 (Rattus norvegicus); assay: Displacement of [3H]prazosin from Adrenergic alpha-1 receptor in rat cerebral cortex cells at 1 uM
[18] = target: T4, 5-hydroxytryptamine receptor 1A; assay: Activity against 5HT1A receptor by Gi-[35S]GTP-gamma-S binding assay; format: functional
[19] = target: Voltage-gated inwardly rectifying potassium channel KCNH2 (Homo sapiens, UniProt Q12809); assay: Inhibition of hERG potassium channel in HEK293 cells by patch clamp assay
Voltage-gated inwardly rectifying potassium channel KCNH2, sequence (Q12809 whole entry): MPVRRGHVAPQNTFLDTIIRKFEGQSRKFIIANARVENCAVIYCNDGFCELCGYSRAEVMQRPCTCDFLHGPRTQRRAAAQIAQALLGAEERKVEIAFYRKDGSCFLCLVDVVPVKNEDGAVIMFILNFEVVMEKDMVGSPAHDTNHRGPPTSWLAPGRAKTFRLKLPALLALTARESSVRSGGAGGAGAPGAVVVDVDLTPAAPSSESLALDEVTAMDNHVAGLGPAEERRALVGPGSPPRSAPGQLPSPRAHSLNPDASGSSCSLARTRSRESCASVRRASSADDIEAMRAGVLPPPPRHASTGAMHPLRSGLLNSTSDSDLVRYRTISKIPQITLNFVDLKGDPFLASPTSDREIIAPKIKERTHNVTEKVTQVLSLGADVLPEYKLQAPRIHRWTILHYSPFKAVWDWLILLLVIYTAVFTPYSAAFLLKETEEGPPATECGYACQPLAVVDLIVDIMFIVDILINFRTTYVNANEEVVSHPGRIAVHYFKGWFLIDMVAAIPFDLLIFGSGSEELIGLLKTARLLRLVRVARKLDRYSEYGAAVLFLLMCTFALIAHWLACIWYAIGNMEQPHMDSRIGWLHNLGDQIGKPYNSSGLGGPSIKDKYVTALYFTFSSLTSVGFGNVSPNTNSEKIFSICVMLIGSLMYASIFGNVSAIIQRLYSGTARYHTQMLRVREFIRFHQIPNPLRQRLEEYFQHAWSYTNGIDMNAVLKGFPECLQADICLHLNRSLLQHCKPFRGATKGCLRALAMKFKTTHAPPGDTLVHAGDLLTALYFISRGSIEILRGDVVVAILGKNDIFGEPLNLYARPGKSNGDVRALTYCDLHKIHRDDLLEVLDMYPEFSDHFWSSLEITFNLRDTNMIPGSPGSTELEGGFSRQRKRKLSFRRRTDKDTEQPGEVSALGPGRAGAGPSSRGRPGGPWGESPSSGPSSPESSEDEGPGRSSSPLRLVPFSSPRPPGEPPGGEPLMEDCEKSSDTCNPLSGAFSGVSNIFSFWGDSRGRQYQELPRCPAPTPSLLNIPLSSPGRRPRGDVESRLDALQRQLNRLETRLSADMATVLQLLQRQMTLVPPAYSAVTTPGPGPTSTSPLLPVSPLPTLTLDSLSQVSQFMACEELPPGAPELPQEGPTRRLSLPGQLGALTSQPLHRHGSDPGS

hERG (KCNH2) = hERG (KCNH2) (Homo sapiens, UniProt Q12809); assay: Inhibition of hERG potassium channel in HEK293 cells by patch clamp assay at 1 uM; settings: HEK293 cells that express hERG
hERG (KCNH2), sequence (Q12809 whole entry): as above

Row | SMILES | Activity [1] | Activity [2] | further results
1 | CCCC(=O)Nc1cccc(N2CCN(CCCCNS(=O)(=O)c3ccc(C)cc3)CC2)c1 | 12% | 12% | 
2 | O=C1CC2(CCCC2)CC(=O)N1CCCCN1CCN(c2ncccn2)CC1 [BUSPIRONE] |  |  | Activity [3]: 50%; LD50 [4]: 196 mg/kg; half-life [5]: 2 h; half-life [6]: 1 h; Cmax [7]: 4 ng/mL; half-life [8]: 1 h; LD50 [9]: 586 mg/kg; Cmax [10]: 146 ng/mL
3 | Cc1ccc(S(=O)(=O)NCCCCN2CCN(c3cccc(NC(=O)C4CC4)c3)CC2)cc1 | < 10% | 10% | Ki [11]: 0.022 µM
4 | CC(=O)Nc1cccc(N2CCN(CC3CCN(S(=O)(=O)c4ccc(F)cc4)CC3)CC2)c1 | 49% | < 10% | 
5 | CCS(=O)(=O)Nc1cccc(N2CCN(CCCCNS(=O)(=O)c3ccc(C)cc3)CC2)c1 | 47% | 14% | 
6 | CC(=O)Nc1cccc(N2CCN(CC3CCN(S(=O)(=O)C(C)C)CC3)CC2)c1 | < 10% | < 10% | 
7 | CC1(C)CC(=O)N(CCCCN2CCN(c3ncccn3)CC2)C(=O)C1 [GEPIRONE] |  |  | Activity [3]: 80%; half-life [5]: 6 h; Ki (D(2) dopamine receptor): 0.058 µM
8 | O=C(Nc1cccc(N2CCN(CCCCNS(=O)(=O)CC3CCCCC3)CC2)c1)C1CC1 | 10% | < 10% | 
9 | O=C1CCC(=O)N1C[C@H]1CC[C@H]2CN(c3ncccn3)CCN2C1 [SUNEPITRON] |  |  | Ki [11]: 0.092 µM; half-life [5]: 2 h; Ki [12]: 0.035 µM; Ratio Ki [13]: 0.4
10 | CC(=O)Nc1cccc(N2CCN(CCCCNS(=O)(=O)c3ccc(F)cc3)CC2)c1 | 39% | < 10% | 
11 | Cc1ccc(S(=O)(=O)NCCCCN2CCN(c3cccc(NS(=O)(=O)C(C)C)c3)CC2)cc1 | 47% | 12% | Ki [11]: 0.047 µM
12 | CC(=O)Nc1cccc(N2CCN(CCCCNS(=O)(=O)C(C)C)CC2)c1 | < 10% | < 10% | 
13 | Cc1ccc(S(=O)(=O)NCCCCN2CCN(c3cccc(NS(C)(=O)=O)c3)CC2)cc1 | 51% | 21% | 
14 | CC(=O)Nc1cccc(N2CCN(CCCCNS(=O)(=O)c3ccc(C)cc3)CC2)c1 | 22% | 43% | Ki [12]: > 3.5 µM; bioavailability [14]: 15%; half-life [6]: 3.3 h; half-life at 5 µM [15]: 0.65 h
15 | CC(=O)Nc1cccc(N2CCN(CCCCN(C)S(=O)(=O)CC3CCCCC3)CC2)c1 | 37% | 47% | half-life at 5 µM [16]: 1.08 h; half-life at 5 µM [15]: 0.2 h; Activity [17]: 37%; EC50 [18]: 0.0036 µM
16 | CC(=O)Nc1cccc(N2CCN(CCCCNS(=O)(=O)C3CCCCC3)CC2)c1 | < 10% | < 10% | 
17 | CC(=O)Nc1cccc(N2CCN(CCCCN(C)S(=O)(=O)CC(C)C)CC2)c1 | 27% | 16% | Ki [11]: 0.0097 µM; half-life at 5 µM [15]: > 0.75 h; IC50 [19]: 2.2 µM; inhibition at 1 µM (hERG (KCNH2)): 31%; Activity [17]: 27%; EC50 [18]: 0.032 µM
18 | Cc1ccc(S(=O)(=O)NCCCCN2CCN(c3cccc(NC(=O)C(C)C)c3)CC2)cc1 | 15% | < 10% | Ki [11]: 0.078 µM
19 | Cc1ccc(S(=O)(=O)NCCCCN2CCN(c3cccc(NC(=O)C(C)(C)C)c3)CC2)cc1 | 0% | 11% | 
20 | Cc1ccc(S(=O)(=O)NCCCCN2CCN(c3ccccc3)CC2)cc1 | 98% | 90% | 
21 | CCC(=O)Nc1cccc(N2CCN(CCCCNS(=O)(=O)c3ccc(C)cc3)CC2)c1 | 0% | 31% | Ki [11]: 0.426 µM
22 | CC(=O)Nc1cccc(N2CCN(CC3CCN(S(=O)(=O)CC4CCCCC4)CC3)CC2)c1 | < 10% | 13% | half-life [6]: 0.75 h

From ChEMBL document CHEMBL1147799, “An integrated in silico 3D model-driven discovery of a novel, potent, and selective amidosulfonamide 5-HT1A agonist (PRX-00023) for the treatment of anxiety and depression” (J Med Chem, 2006)
